In patent US10792289B2 (Horizon Orphan LLC, priority 2009, dated 2020):
Read-outs that look alike come from different tables or passages of the source.

Test system: P. aeruginosa isolates
Experiment: Phase 2 study: MIC of P. aeruginosa isolates to levofloxacin
Assay type: cell-based
Conditions: Pseudomonas aeruginosa
Experimental: Efficacy was evaluated by microbiologic assessment of sputum samples, time to need for anti-pseudomonal antimicrobials, the Cystic Fibrosis Questionaire-Revised (CFQ-R), and pulmonary function tests. […] Pair-wise comparisons between all the treatment arms were conducted as secondary analyses.

Compound: C[C@H]1COc2c(N3CCN(C)CC3)c(F)cc3c(=O)c(C(=O)O)cn1c23 [Levofloxacin, levofloxacin]
- MIC90 (672 h, MITT, combined 240 mg QD and BID, Day 28, read-out: Highest MIC, MIC90): 32 mg/L
- MIC50 (672 h, MITT, combined 240 mg QD and BID, Day 28, read-out: MIC50 (all organisms)): 4 mg/L
- MIC90 (672 h, MITT, combined 240 mg QD and BID, Day 28, read-out: MIC90 (all organisms)): 16 mg/L
- MIC50 (672 h, Table 14, EE, 120 mg QD, Day 28, read-out: MIC50 (all organisms)): 8 mg/L
- MIC90 (672 h, Table 14, EE, 120 mg QD, Day 28, read-out: MIC90 (all organisms)): 32 mg/L
- MIC50 (672 h, Table 14, EE, 240 mg BID, Day 28, read-out: MIC50 (all organisms)): 8 mg/L
- MIC90 (672 h, Table 14, EE, 240 mg BID, Day 28, read-out: MIC90 (all organisms)): 32 mg/L
- MIC50 (672 h, Table 14, EE, 240 mg QD, Day 28, read-out: MIC50 (all organisms)): 8 mg/L
- MIC90 (672 h, Table 14, EE, 240 mg QD, Day 28, read-out: MIC90 (all organisms)): 16 mg/L
- MIC50 (672 h, Table 14, EE, combined 240 mg QD and BID, Day 28, read-out: MIC50 (all organisms)): 8 mg/L
- MIC90 (672 h, Table 14, EE, combined 240 mg QD and BID, Day 28, read-out: MIC90 (all organisms)): 32 mg/L
- MIC (672 h, read-out: Highest MIC to levofloxacin, mean (SD), MITT, 120 mg QD, Day 28): 12.7 mg/L
- MIC (672 h, read-out: Highest MIC to levofloxacin, mean (SD), MITT, 240 mg BID, Day 28): 17.9 mg/L
- MIC (672 h, read-out: Highest MIC to levofloxacin, mean (SD), MITT, 240 mg QD, Day 28): 9.17 mg/L
- MIC (672 h, read-out: Highest MIC to levofloxacin, mean (SD), MITT, combined 240 mg QD and BID, Day 28): 13.5 mg/L
- MIC (672 h, read-out: MIC to levofloxacin (all organisms), mean (SD), EE, 120 mg QD, Day 28): 8.9 mg/L
- MIC (672 h, read-out: MIC to levofloxacin (all organisms), mean (SD), EE, 240 mg BID, Day 28): 10.1 mg/L
- MIC (672 h, read-out: MIC to levofloxacin (all organisms), mean (SD), EE, 240 mg QD, Day 28): 6 mg/L
- MIC (672 h, read-out: MIC to levofloxacin (all organisms), mean (SD), EE, combined 240 mg QD and BID, Day 28): 8 mg/L
- MIC (672 h, read-out: MIC to levofloxacin (all organisms), mean (SD), MITT, 120 mg QD, Day 28): 8.8 mg/L
- MIC (672 h, read-out: MIC to levofloxacin (all organisms), mean (SD), MITT, 240 mg BID, Day 28): 9.9 mg/L
- MIC (672 h, read-out: MIC to levofloxacin (all organisms), mean (SD), MITT, 240 mg QD, Day 28): 5.9 mg/L
- MIC (672 h, read-out: MIC to levofloxacin (all organisms), mean (SD), MITT, combined 240 mg QD and BID, Day 28): 7.9 mg/L
- MIC (672 h, read-out: MIC to levofloxacin (all organisms), mean (SD), Table 14, EE, 120 mg QD, Day 28): 12.9 mg/L
- MIC (672 h, read-out: MIC to levofloxacin (all organisms), mean (SD), Table 14, EE, 240 mg BID, Day 28): 18 mg/L
- MIC (672 h, read-out: MIC to levofloxacin (all organisms), mean (SD), Table 14, EE, 240 mg QD, Day 28): 9.42 mg/L
- MIC (672 h, read-out: MIC to levofloxacin (all organisms), mean (SD), Table 14, EE, combined 240 mg QD and BID, Day 28): 13.6 mg/L
- MIC50 (EE and MITT, 120 mg QD, baseline, read-out: MIC50 for P. aeruginosa isolates): 8 mg/L
- MIC90 (EE and MITT, 120 mg QD, baseline, read-out: MIC90 for P. aeruginosa isolates): 32 mg/L
- MIC50 (EE and MITT, 240 mg BID, baseline, read-out: MIC50 for P. aeruginosa isolates): 6 mg/L
- MIC90 (EE and MITT, 240 mg BID, baseline, read-out: MIC90 for P. aeruginosa isolates): 32 mg/L
- MIC50 (EE and MITT, 240 mg QD, baseline, read-out: MIC50 for P. aeruginosa isolates): 4 mg/L
- MIC90 (EE and MITT, 240 mg QD, baseline, read-out: MIC90 for P. aeruginosa isolates): 32 mg/L
- MIC (all patients, baseline (n=592 isolates), read-out: Median baseline MIC of all isolates): 4 mg/L
- MIC90 (read-out: Baseline MIC90 of all isolates): 16 mg/L
- MIC (read-out: Highest MIC to levofloxacin, mean (SD), MITT, 120 mg QD, Day 1): 14.3 mg/L
- MIC (read-out: Highest MIC to levofloxacin, mean (SD), MITT, 240 mg BID, Day 1): 11.4 mg/L
- MIC (read-out: Highest MIC to levofloxacin, mean (SD), MITT, 240 mg QD, Day 1): 9.06 mg/L
- MIC (read-out: Highest MIC to levofloxacin, mean (SD), MITT, combined 240 mg QD and BID, Day 1): 10.2 mg/L
- MIC (read-out: MIC to levofloxacin (all organisms), mean (SD), EE, 120 mg QD, Day 1): 11.5 mg/L
- MIC (read-out: MIC to levofloxacin (all organisms), mean (SD), EE, 240 mg BID, Day 1): 6.8 mg/L
- MIC (read-out: MIC to levofloxacin (all organisms), mean (SD), EE, 240 mg QD, Day 1): 6.3 mg/L
- MIC (read-out: MIC to levofloxacin (all organisms), mean (SD), EE, combined 240 mg QD and BID, Day 1): 6.5 mg/L
- MIC (read-out: MIC to levofloxacin (all organisms), mean (SD), MITT, 120 mg QD, Day 1): 11 mg/L
- MIC (read-out: MIC to levofloxacin (all organisms), mean (SD), MITT, 240 mg BID, Day 1): 6.8 mg/L
- MIC (read-out: MIC to levofloxacin (all organisms), mean (SD), MITT, 240 mg QD, Day 1): 6.1 mg/L
- MIC (read-out: MIC to levofloxacin (all organisms), mean (SD), MITT, combined 240 mg QD and BID, Day 1): 6.4 mg/L
- MIC (read-out: MIC to levofloxacin (all organisms), mean (SD), Table 14, EE, 120 mg QD, Day 1): 15 mg/L
- MIC (read-out: MIC to levofloxacin (all organisms), mean (SD), Table 14, EE, 240 mg BID, Day 1): 11.6 mg/L
- MIC (read-out: MIC to levofloxacin (all organisms), mean (SD), Table 14, EE, 240 mg QD, Day 1): 9.35 mg/L
- MIC (read-out: MIC to levofloxacin (all organisms), mean (SD), Table 14, EE, combined 240 mg QD and BID, Day 1): 10.5 mg/L
